From patent publication US10494343B2, “Organic compound, near-infrared fluorescent constant medium containing same, and method for nano-granulating constant medium” (COLLEGE OF MEDICINE POCHON CHA UNIV. INDUSTRY—ACADEMIC …, priority 2015, dated 2019) come the findings set out here.

One data set is described as follows: Test Example 1: optical properties of contrast medium according to Preparation Example 2. The data set is classed as physicochemical. Also noted: unit not given here. The note with it: conventional contrast medium, solvent not stated. The protocol:
Contrast media were prepared by dissolving compound H per se according to Example 8 in various organic solvents without manufacturing core-shell nanoparticles.
Test Example 1—Evaluation on Optical Properties of Contrast Medium According to Preparation Example 2
The absorption intensity, absorption wavelength, emission wavelength, and quantum yield (ϕf) of the contrast media prepared in Preparation Example 2 are shown in the Table 2.
As to `CC1(C)C(/C=C/C=C/C=C/C=C2\N(CCCCS(=O)(=O)O)c3ccc4ccccc4c3C2(C)C)=[N+](CCCCS(=O)(=O)[O-])c2ccc3ccccc3c21` [indocyanine green], the “quantum efficiency (χf)” value turned out to be 2.58.

Another data set is described as follows: Absorption/emission wavelength of the compounds (Table 1). The data set is classed as physicochemical. The note with it: DMSO.
As to “3-ethyl-2-((E)-2-((E)-3-((E)-2-(3-ethyl-7-methoxy-1,1-dimethyl-1H-benzo[e]indol-2(3H)-ylidene)ethylidene)-2-(4-(2-isothiocyantoethylcarbamoyl)phenylthio)-5-(1-methoxy-2-methyl-1-oxopropan-2-yl)cyclohex-1-enyl) vinyl)-7-methoxy-1,1-dimethyl-1H-benzo[e]indolium iodide [Compound J]”, the Absorption wavelength worked out at 856 nm and the Emission wavelength amounted to 905 nm.
In the same order, the values of `CCN1/C(=C/C=C2\CC(c3ccc(C(=O)OC)cc3)CC(/C=C/C3=[N+](CC)c4ccc5cc(OC)ccc5c4C3(C)C)=C2Cl)C(C)(C)c2c1ccc1cc(OC)ccc21.[I-]` (stereo not shown) [C, 2-((E)-2-((E)-2-chloro-3-((E)-2-(3-ethyl-7-methoxy-1,1-dimethyl-1H-benzo[e]indol-2(3H)-ylidene)ethylidene)-5-(4-(methoxycarbonyl)phenyl)cyclohex-1-enyl)vinyl)-3-ethyl-7-methoxy-1,1-dimethyl-1H-benzo[e]indolium iodide] are 843 nm and 876 nm.
On to `CCN1/C(=C/C=C2\CC(c3ccc(C(=O)OC)cc3)CC(/C=C/C3=[N+](CC)c4ccc5cc(S(=O)(=O)O)ccc5c4C3(C)C)=C2Cl)C(C)(C)c2c1ccc1cc(S(=O)(=O)O)ccc21` (stereo not shown) [Compound A, 2-((E)-2-((E)-2-chloro-3-((E)-2-(3-ethyl-1,1-dimethyl-7-sulfo-1H-benzo[e]indo-1-2(3H)-ylidene)ethylidene)-5-(4-(methoxycarbonyl)phenyl)cyclohex-1-enyl)vinyl)-3-ethyl-1,1-dimethyl-1H-benzo[e]indolium-7-sulfonate], for which the Absorption wavelength is recorded as 833 nm and the Emission wavelength came to 865 nm.
As for `CCN1/C(=C/C=C2\CC(c3ccc(C(=O)OC)cc3)CC(/C=C/C3=[N+](CC)c4ccc5cc(Br)ccc5c4C3(C)C)=C2Cl)C(C)(C)c2c1ccc1cc(Br)ccc21.[I-]` (stereo not shown) [Compound B, 7-bromo-2-((E)-2-((E)-3-((E)-2-(7-bromo-3-ethyl-1,1-dimethyl-1H-benzo[e]indol-2(3H)-ylidene)ethylidene)-2-chloro-5-(4-(methoxycarbonyl)phenyl)cyclohex-1-enyl)vinyl)-3-ethyl-1,1-dimethyl-1H-benzo[e]indolium iodide], the Absorption wavelength came to 831 nm and the Emission wavelength is 863 nm.
The compound `CCN1/C(=C/C=C2\CC(C(C)(C)C(=O)OC)CC(/C=C/C3=[N+](CC)c4ccc5cc(S(=O)(=O)O)ccc5c4C3(C)C)=C2Cl)C(C)(C)c2c1ccc1cc(S(=O)(=O)O)ccc21` (stereo not shown) [Compound D, 2-((E)-2-((E)-2-chloro-3-((E)-2-(3-ethyl-1,1-dimethyl-7-sulfo-1H-benzo[e]indol-2(3H)-ylidene)ethylidene)-5-(1-methoxy-2-methyl-1-oxopropan-2-yl)cyclohex-1-enyl)vinyl)-3-ethyl-1,1-dimethyl-1H-benzo[e]indolium-7-sulfonate] gave an Absorption wavelength of 833 nm and an Emission wavelength of 861 nm.
The like results for `CCN1/C(=C/C=C2\CC(C(C)(C)C(=O)OC)CC(/C=C/C3=[N+](CC)c4ccc5cc(Br)ccc5c4C3(C)C)=C2Cl)C(C)(C)c2c1ccc1cc(Br)ccc21.[I-]` (stereo not shown) [Compound E, 7-bromo-2-((E)-2-((E)-3-((E)-2-(7-bromo-3-ethyl-1,1-dimethyl-1H-benzo[e]indol-2(3H)-ylidene)ethylidene)-2-chloro-5-(1-methoxy-2-methyl-1-oxopropan-2-yl)cyclohex-1-enyl)vinyl)-3-ethyl-1,1-dimethyl-1H-benzo[e]indolium iodide] were, in that order, 833 nm and 865 nm.
In the same order, the values of `CCN1/C(=C/C=C2\CC(C(C)(C)C(=O)OC)CC(/C=C/C3=[N+](CC)c4ccc5cc(OC)ccc5c4C3(C)C)=C2Cl)C(C)(C)c2c1ccc1cc(OC)ccc21.[I-]` (stereo not shown) [Compound F, 2-((E)-2-((E)-2-chloro-3-((E)-2-(3-ethyl-7-methoxy-1,1-dimethyl-1H-benzo[e]indol-2(3H)-ylidene)ethylidene)-5-(1-methoxy-2-methyl-1-oxopropan-2-yl)cyclohex-1-enyl)vinyl)-3-ethyl-7-methoxy-1,1-dimethyl-1H-benzo[e]indolium iodide] are 843 nm and 881 nm.
The like results for `CCN1/C(=C/C=C2\CC(C(C)(C)C(=O)OC)CC(/C=C/C3=[N+](CC)c4ccc5cc(S(=O)(=O)[O-])ccc5c4C3(C)C)=C2Sc2ccc(C(=O)O)cc2)C(C)(C)c2c1ccc1cc(S(=O)(=O)O)ccc21` (stereo not shown) [Compound G, 2-((E)-2-((E)-2-(4-carboxyphenylthio)-3-((E)-2-(3-ethyl-1,1-dimethyl-7-sulfo-1H-benzo[e]indol-2(3H)-ylidene)ethylidene)-5-(1-methoxy-2-methyl-1-oxopropan-2-yl)cyclohex-1-enyl)vinyl)-3-ethyl-1,1-dimethyl-1H-benzo[e]indolium-7-sulfonate] were, in that order, 849 nm and 883 nm.
`CCN1/C(=C/C=C2\CC(C(C)(C)C(=O)OC)CC(/C=C/C3=[N+](CC)c4ccc5cc(OC)ccc5c4C3(C)C)=C2Sc2ccc(C(=O)[O-])cc2)C(C)(C)c2c1ccc1cc(OC)ccc21` (stereo not shown) [Compound H, 4-((E)-6-((E)-2-(3-ethyl-7-methoxy-1,1-dimethyl-1H-benzo[e]indol-2(3H)-ylidene)ethylidene)-2-((E)-2-(3-ethyl-7-methoxy-1,1-dimethyl-1H-benzo[e]indolium-2-yl)vinyl)-4-(1-methoxy-2-methyl-1-oxopropan-2-yl)cyclohex-1-enylthio)benzoate] yielded an Absorption wavelength of 857 nm and an Emission wavelength of 900 nm.
In the same order, the values of `CCN1/C(=C/C=C2\CC(C(C)(C)C(=O)OC)CC(/C=C/C3=[N+](CC)c4ccc5cc(OC)ccc5c4C3(C)C)=C2Sc2ccc(C(=O)NCCN)cc2)C(C)(C)c2c1ccc1cc(OC)ccc21.[I-]` (stereo not shown) [Compound I, 2-((E)-2-((E)-2-(4-(2-aminoethylcarbamoyl)phenylthio)-3-((E)-2-(3-ethyl-7-methoxy-1,1-dimethyl-1H-benzo[e]indol-2(3H)-ylidene)ethylidene)-5-(1-methoxy-2-methyl-1-oxopropan-2-yl)cyclohex-1-enyl)vinyl)-3-ethyl-7-methoxy-1,1-dimethyl-1H-benzo[e]indolium iodide] are 857 nm and 889 nm.
The like results for `CCN1/C(=C/C=C2\CCCC(/C=C/C3=[N+](CC)c4ccc5cc(OC)ccc5c4C3(C)C)=C2Sc2ccc(C(=O)NCCN)cc2)C(C)(C)c2c1ccc1cc(OC)ccc21.[I-]` [Compound K, 2-((E)-2-((E)-2-(4-(2-aminoethylcarbamoyl)phenylthio)-3-((E)-2-(3-ethyl-7-methoxy-1,1-dimethyl-1H-benzo[e]indol-2(3H)-ylidene)ethylidene)cyclohex-1-enyl)vinyl)-3-ethyl-7-methoxy-1,1-dimethyl-1H-benzo[e]indolium iodide] were, in that order, 857 nm and 901 nm.
For `CCN1/C(=C/C=C2\CC(C(C)(C)C)CC(/C=C/C3=[N+](CC)c4ccc5cc(OC)ccc5c4C3(C)C)=C2Sc2ccc(C(=O)NCCN)cc2)C(C)(C)c2c1ccc1cc(OC)ccc21.[I-]` (stereo not shown) [Compound L, 2-((E)-2-((E)-2-(4-(2-aminoethylcarbamoyl)phenylthio)-5-tert-butyl-3-((E)-2-(3-ethyl-7-methoxy-1,1-dimethyl-1H-benzo[e]indol-2(3H)-ylidene)ethylidene)cyclohex-1-enyl)vinyl)-3-ethyl-7-methoxy-1,1-dimethyl-1H-benzo[e]indolium iodide], the Absorption wavelength was 857 nm and the Emission wavelength turned out to be 896 nm.
